Data: patent US7205382B2, “Peptides, the production and use thereof for binding immunoglobulins” (Fresenius Medical Care Affina GmbH, priority 2000, dated 2007)
Bridge positions count the residues as written; N and C are the ends. Ends that are not written are not given here. cellulose = not defined here; βAla = NCCC(=O)O

Assays:
Type in all cases: binding
Parameters in all cases: key: No binding of immunoglobulin for the defined peptide variant, detection negative: 0; Binding of immunoglobulin for the defined peptide variant, detection positive: +
serum albumin = assay: Cellulose-immobilized 13-mer peptide variants incubated with serum albumin (negative control), anti-human IgG-AP detection; settings: blocking buffer without addition, 3 h room temperature
Outline: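 SPOT-type 13-mer peptides on cellulose with a (βA)(βA) spacer, blocked in 5% saccharose/4% BSA in T-TBS pH 8.0. Incubated 3 h at RT with human IgG-Fc (1 μg/ml) or human serum/plasma (1:10,000), or with blocking buffer alone as the albumin specificity control. Bound IgG detected with AP-anti-human IgG (1.2 μg/ml) and NBT/BCIP colorimetric development at pH 9.5.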

[1] = tested on: immunoglobulins in human plasma; assay: Cellulose-immobilized 13-mer peptide variants incubated with human plasma, anti-human IgG-AP detection; settings: human plasma as sample, diluted 1:10,000 in blocking buffer, 3 h room temperature
Outline: (§1)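 Peptides on cellulose via a (βA)(βA) spacer were blocked in T-TBS (pH 8.0) with 5% saccharose and 4% BSA, then exposed for 3 h at room temperature to IgG-Fc (1 μg/ml), serum diluted 1:10,000, or blocking buffer alone. Bound IgG was detected with AP-anti-human IgG (1.2 μg/ml) and NBT/BCIP colour development.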

human IgG-Fc = assay: Cellulose-immobilized 13-mer peptide variants incubated with human IgG-Fc, anti-human IgG-AP detection; settings: IgG-Fc 1 μg/ml in blocking buffer, 3 h room temperature
Outline: as §1

| Substance | Result for incubation with serum albumin (immunoglobulin binding detection) (serum albumin) | Result for incubation with human plasma (immunoglobulin binding detection) [1] | Result for incubation with human IgG-Fc (immunoglobulin binding detection) (human IgG-Fc) |
| --- | --- | --- | --- |
| 07Q: cellulose-bound 13-mer variant DCAWHLQELVWCT-(βA)(βA) (DCAWHLQELVWCT-{βAla-βAla-cellulose}; disulfide 2-12 (inferred); not fully specified (N-terminus); printed as DCAWHLQELVWCT-(βA)(βA); reading uncertain) | 0 | 0 | 0 |
| 07R: cellulose-bound 13-mer variant DCAWHLRELVWCT-(βA)(βA) (DCAWHLRELVWCT-{βAla-βAla-cellulose}; disulfide 2-12 (inferred); not fully specified (N-terminus); printed as DCAWHLRELVWCT-(βA)(βA); reading uncertain) | 0 | 0 | 0 |
| 07S: cellulose-bound 13-mer variant DCAWHLSELVWCT-(βA)(βA) (DCAWHLSELVWCT-{βAla-βAla-cellulose}; disulfide 2-12 (inferred); not fully specified (N-terminus); printed as DCAWHLSELVWCT-(βA)(βA); reading uncertain) | 0 | 0 | 0 |
| 07T: cellulose-bound 13-mer variant DCAWHLTELVWCT-(βA)(βA) (DCAWHLTELVWCT-{βAla-βAla-cellulose}; disulfide 2-12 (inferred); not fully specified (N-terminus); printed as DCAWHLTELVWCT-(βA)(βA); reading uncertain) | 0 | 0 | 0 |
| 07V: cellulose-bound 13-mer variant DCAWHLVELVWCT-(βA)(βA) (DCAWHLVELVWCT-{βAla-βAla-cellulose}; disulfide 2-12 (inferred); not fully specified (N-terminus); printed as DCAWHLVELVWCT-(βA)(βA); reading uncertain) | 0 | 0 | 0 |
| 07W: cellulose-bound 13-mer variant DCAWHLWELVWCT-(βA)(βA) (DCAWHLWELVWCT-{βAla-βAla-cellulose}; disulfide 2-12 (inferred); not fully specified (N-terminus); printed as DCAWHLWELVWCT-(βA)(βA); reading uncertain) | 0 | 0 | 0 |
| 07Y: cellulose-bound 13-mer variant DCAWHLYELVWCT-(βA)(βA) (DCAWHLYELVWCT-{βAla-βAla-cellulose}; disulfide 2-12 (inferred); not fully specified (N-terminus); printed as DCAWHLYELVWCT-(βA)(βA); reading uncertain) | 0 | 0 | 0 |
| 08A: cellulose-bound 13-mer variant DCAWHLGALVWCT-(βA)(βA) (DCAWHLGALVWCT-{βAla-βAla-cellulose}; disulfide 2-12 (inferred); not fully specified (N-terminus); printed as DCAWHLGALVWCT-(βA)(βA); reading uncertain) | 0 | 0 | + |
| 08C: cellulose-bound 13-mer variant DCAWHLGCLVWCT-(βA)(βA) (DCAWHLGCLVWCT-{βAla-βAla-cellulose}; not fully specified (N-terminus); printed as DCAWHLGCLVWCT-(βA)(βA); cysteine pairing not given here; reading uncertain) | 0 | 0 | 0 |
| 08D: cellulose-bound 13-mer variant DCAWHLGDLVWCT-(βA)(βA) (DCAWHLGDLVWCT-{βAla-βAla-cellulose}; disulfide 2-12 (inferred); not fully specified (N-terminus); printed as DCAWHLGDLVWCT-(βA)(βA); reading uncertain) | 0 | + | + |
| 08F: cellulose-bound 13-mer variant DCAWHLGFLVWCT-(βA)(βA) (DCAWHLGFLVWCT-{βAla-βAla-cellulose}; disulfide 2-12 (inferred); not fully specified (N-terminus); printed as DCAWHLGFLVWCT-(βA)(βA); reading uncertain) | 0 | 0 | 0 |
| 08G: cellulose-bound 13-mer variant DCAWHLGGLVWCT-(βA)(βA) (DCAWHLGGLVWCT-{βAla-βAla-cellulose}; disulfide 2-12 (inferred); not fully specified (N-terminus); printed as DCAWHLGGLVWCT-(βA)(βA); reading uncertain) | 0 | 0 | 0 |
| 08H: cellulose-bound 13-mer variant DCAWHLGHLVWCT-(βA)(βA) (DCAWHLGHLVWCT-{βAla-βAla-cellulose}; disulfide 2-12 (inferred); not fully specified (N-terminus); printed as DCAWHLGHLVWCT-(βA)(βA); reading uncertain) | 0 | + | + |
| 08I: cellulose-bound 13-mer variant DCAWHLGILVWCT-(βA)(βA) (DCAWHLGILVWCT-{βAla-βAla-cellulose}; disulfide 2-12 (inferred); not fully specified (N-terminus); printed as DCAWHLGILVWCT-(βA)(βA); reading uncertain) | 0 | 0 | 0 |
| 08K: cellulose-bound 13-mer variant DCAWHLGKLVWCT-(βA)(βA) (DCAWHLGKLVWCT-{βAla-βAla-cellulose}; disulfide 2-12 (inferred); not fully specified (N-terminus); printed as DCAWHLGKLVWCT-(βA)(βA); reading uncertain) | 0 | + | + |
| 08L: cellulose-bound 13-mer variant DCAWHLGLLVWCT-(βA)(βA) (DCAWHLGLLVWCT-{βAla-βAla-cellulose}; disulfide 2-12 (inferred); not fully specified (N-terminus); printed as DCAWHLGLLVWCT-(βA)(βA); reading uncertain) | 0 | 0 | 0 |
| 08M: cellulose-bound 13-mer variant DCAWHLGMLVWCT-(βA)(βA) (DCAWHLGMLVWCT-{βAla-βAla-cellulose}; disulfide 2-12 (inferred); not fully specified (N-terminus); printed as DCAWHLGMLVWCT-(βA)(βA); reading uncertain) | 0 | + | + |
| 08N: cellulose-bound 13-mer variant DCAWHLGNLVWCT-(βA)(βA) (DCAWHLGNLVWCT-{βAla-βAla-cellulose}; disulfide 2-12 (inferred); not fully specified (N-terminus); printed as DCAWHLGNLVWCT-(βA)(βA); reading uncertain) | 0 | + | + |
| 08P: cellulose-bound 13-mer variant DCAWHLGPLVWCT-(βA)(βA) (DCAWHLGPLVWCT-{βAla-βAla-cellulose}; disulfide 2-12 (inferred); not fully specified (N-terminus); printed as DCAWHLGPLVWCT-(βA)(βA); reading uncertain) | 0 | 0 | 0 |
